# Numbers after ± are expanded uncertainties.
# Conditions: Wilhelmi plate
structure (smiles),measurement,setting,value
O [water],surface tension liquid-gas,"272.64 K, Metastable liquid",75.78 ± 0.03 mN/m
same,surface tension liquid-gas,"273.04 K, Metastable liquid",75.71 ± 0.03 mN/m
same,surface tension liquid-gas,"275.06 K, Liquid",75.41 ± 0.03 mN/m
same,surface tension liquid-gas,"276.72 K, Liquid",75.17 ± 0.03 mN/m
same,surface tension liquid-gas,"280.09 K, Liquid",74.69 ± 0.03 mN/m
same,surface tension liquid-gas,"280.34 K, Liquid",74.65 ± 0.03 mN/m
same,surface tension liquid-gas,"283.27 K, Liquid",74.23 ± 0.03 mN/m
same,surface tension liquid-gas,"286.54 K, Liquid",73.74 ± 0.03 mN/m
same,surface tension liquid-gas,"288.33 K, Liquid",73.46 ± 0.03 mN/m
same,surface tension liquid-gas,"290.57 K, Liquid",73.12 ± 0.03 mN/m
same,surface tension liquid-gas,"293.04 K, Liquid",72.74 ± 0.03 mN/m
same,surface tension liquid-gas,"294.13 K, Liquid",72.58 ± 0.03 mN/m
same,surface tension liquid-gas,"295.71 K, Liquid",72.33 ± 0.03 mN/m
same,surface tension liquid-gas,"297.4 K, Liquid",72.07 ± 0.03 mN/m
same,surface tension liquid-gas,"298.42 K, Liquid",71.91 ± 0.03 mN/m
same,surface tension liquid-gas,"299.35 K, Liquid",71.77 ± 0.03 mN/m
same,surface tension liquid-gas,"300.3 K, Liquid",71.62 ± 0.03 mN/m
same,surface tension liquid-gas,"301.78 K, Liquid",71.39 ± 0.03 mN/m
same,surface tension liquid-gas,"302.43 K, Liquid",71.28 ± 0.03 mN/m
same,surface tension liquid-gas,"303.41 K, Liquid",71.13 ± 0.03 mN/m
same,surface tension liquid-gas,"304.45 K, Liquid",70.96 ± 0.03 mN/m
same,surface tension liquid-gas,"305.69 K, Liquid",70.76 ± 0.03 mN/m
same,surface tension liquid-gas,"306.63 K, Liquid",70.61 ± 0.03 mN/m
same,surface tension liquid-gas,"307.99 K, Liquid",70.39 ± 0.03 mN/m
same,surface tension liquid-gas,"310.6 K, Liquid",69.97 ± 0.03 mN/m
same,surface tension liquid-gas,"313.69 K, Liquid",69.47 ± 0.03 mN/m
same,surface tension liquid-gas,"316.02 K, Liquid",69.07 ± 0.03 mN/m
same,surface tension liquid-gas,"318.49 K, Liquid",68.66 ± 0.03 mN/m
same,surface tension liquid-gas,"323.62 K, Liquid",67.79 ± 0.03 mN/m
same,surface tension liquid-gas,"328.1 K, Liquid",67.03 ± 0.03 mN/m
same,surface tension liquid-gas,"333.49 K, Liquid",66.1 ± 0.03 mN/m
same,surface tension liquid-gas,"337.83 K, Liquid",65.34 ± 0.03 mN/m
same,surface tension liquid-gas,"343.49 K, Liquid",64.33 ± 0.03 mN/m

# From the NIST ThermoML archive (doi:10.1021/acs.jced.5b00776)
